The test system of one data set is Cell membrane. In words: Induction of membrane permeability in methicillin resistant Staphylococcus aureus 20 at 32 ug/ml measured at 2 mins interval over 20 mins by SYTOX green staining based assay. To be noted: dose 32.0 µg/ml.
Data set [1] relates to Staphylococcus aureus. In words: Antibacterial activity against Staphylococcus aureus ATCC 29213 assessed as resistance development by measuring fold increase in MIC after 20 passages incubated for 16 to 18 hrs. As to conditions: time 16-18 hrs. The format is functional.
Data set [2] has as its system Staphylococcus aureus. In words: Antibacterial activity against Staphylococcus aureus ATCC 29213 incubated for 16 to 18 hrs by broth dilution method. The format is functional. As to conditions: time 16-18 hrs. A general note: Dilution methods test growth across graded concentrations, often in twofold steps.
The subject of data set [3] is Staphylococcus aureus. In words: Antibacterial activity against methicillin resistant Staphylococcus aureus N315 incubated for 16 to 18 hrs by broth dilution method. The data set is classed as functional. As to conditions: time 16-18 hrs.
Data set [4] deals with Staphylococcus aureus. In words: Antibacterial activity against methicillin resistant Staphylococcus aureus M11 incubated for 16 to 18 hrs by broth dilution method. As to conditions: time 16-18 hrs. The format is functional.
The subject of data set [5] is Staphylococcus aureus. In words: Antibacterial activity against methicillin resistant Staphylococcus aureus M12 incubated for 16 to 18 hrs by broth dilution method. As to conditions: time 16-18 hrs. The data set is classed as functional.
For data set [6], the system named is Staphylococcus aureus. Nature of the data set: Antibacterial activity against methicillin resistant Staphylococcus aureus M13 incubated for 16 to 18 hrs by broth dilution method. As to conditions: time 16-18 hrs. The format is functional.
Data set [7] concerns Staphylococcus aureus. In words: Antibacterial activity against methicillin resistant Staphylococcus aureus M14 incubated for 16 to 18 hrs by broth dilution method. As to conditions: time 16-18 hrs. The data set is classed as functional.
For data set [8], the system named is Staphylococcus aureus. Nature of the data set: Antibacterial activity against methicillin resistant Staphylococcus aureus M16 incubated for 16 to 18 hrs by broth dilution method. The data set is classed as functional. As to conditions: time 16-18 hrs.
Data set [9] relates to Staphylococcus aureus. Nature of the data set: Antibacterial activity against methicillin resistant Staphylococcus aureus M17 incubated for 16 to 18 hrs by broth dilution method. The format is functional. To be noted: time 16-18 hrs.
Data set [10] deals with Staphylococcus aureus. In words: Antibacterial activity against methicillin resistant Staphylococcus aureus M20 incubated for 16 to 18 hrs by broth dilution method. The format is functional. As to conditions: time 16-18 hrs.
Data set [11] relates to Staphylococcus aureus. Nature of the data set: Antibacterial activity against methicillin resistant Staphylococcus aureus M21 incubated for 16 to 18 hrs by broth dilution method. As to conditions: time 16-18 hrs. The format is functional.
The test system of data set [12] is Staphylococcus aureus. In words: Antibacterial activity against methicillin resistant Staphylococcus aureus M22 incubated for 16 to 18 hrs by broth dilution method. The data set is classed as functional. To be noted: time 16-18 hrs.
Data set [13] relates to Staphylococcus aureus. Nature of the data set: Antibacterial activity against methicillin resistant Staphylococcus aureus M23 incubated for 16 to 18 hrs by broth dilution method. The format is functional. As to conditions: time 16-18 hrs.
For the next data set, the system named is Escherichia coli. In words: Antibacterial activity against Escherichia coli ATCC 25922 incubated for 16 to 18 hrs by broth dilution method. The format is functional. To be noted: time 16-18 hrs.
Data set [14] in a line: Hemolytic activity in sheep RBC incubated for 1 hr. The format is toxicity, cell-based, Ovis aries, Erythrocyte. As to conditions: sheep red blood cells (erythrocytes).
The nature of data set [15]: Selectivity index, ratio of HC50 for sheep RBC to MIC for Staphylococcus aureus ATCC 29213. The format is toxicity. As to conditions: sheep red blood cells, read-out: Selectivity Index.
In data set [16] the test system is Staphylococcus aureus. In words: Bactericidal activity against Staphylococcus aureus ATCC 29213 at 8 times MIC within 8 hrs by time kill assay. The format is functional, organism-based.
The test system of data set [17] is Staphylococcus aureus. Nature of the data set: Antibacterial activity against methicillin resistant Staphylococcus aureus 20 infected in Kunming mouse skin abscess model assessed as reduction in inflammatory cells in infection sites at 5 mg/kg, sc measured after 2 hrs. The data set is classed as functional, organism-based.
Data set [18] relates to Staphylococcus aureus. Nature of the data set: Antibacterial activity against methicillin resistant Staphylococcus aureus 20 infected in Kunming mouse skin abscess model assessed as reduction in bacterial load at 5 mg/kg, sc measured after 2 hrs. The data set is classed as functional. Also on record: scale not given: the % may be the effect or the level left.
Data set [19] deals with Staphylococcus aureus. Nature of the data set: Antibacterial activity against methicillin resistant Staphylococcus aureus 20 infected in Kunming mouse skin abscess model assessed as reduction in TNF-alpha level at 5 mg/kg, sc measured after 2 hrs by ELISA. The data set is classed as functional, organism-based. A general note: In an ELISA, binding on a coated surface is turned into a signal by an enzyme label.

For data set [20], the system named is Staphylococcus aureus. In words: Antibacterial activity against methicillin resistant Staphylococcus aureus 20 infected in Kunming mouse skin abscess model assessed as reduction in IL-6 level at 5 mg/kg, sc measured after 2 hrs by ELISA. The format is functional, organism-based.
The nature of data set [21]: Toxicity in Kunming mouse skin abscess model infected with methicillin resistant Staphylococcus aureus assessed as heart damage at 5 mg/kg, sc measured after 2 hrs by H and E staining based assay. The format is organism-based. To be noted: in vivo.
A short description of data set [22]: Toxicity in Kunming mouse skin abscess model infected with methicillin resistant Staphylococcus aureus assessed as liver damage at 5 mg/kg, sc measured after 2 hrs by H and E staining based assay. The data set is classed as organism-based. As to conditions: in vivo.
A short description of data set [23]: Toxicity in Kunming mouse skin abscess model infected with methicillin resistant Staphylococcus aureus assessed as spleen damage at 5 mg/kg, sc measured after 2 hrs by H and E staining based assay. The data set is classed as organism-based. To be noted: in vivo.
Data set [24] in a line: Toxicity in Kunming mouse skin abscess model infected with methicillin resistant Staphylococcus aureus assessed as lungs damage at 5 mg/kg, sc measured after 2 hrs by H and E staining based assay. The format is organism-based. As to conditions: in vivo.
Data set [25] can be described thus: Toxicity in Kunming mouse skin abscess model infected with methicillin resistant Staphylococcus aureus assessed as kidneys damage at 5 mg/kg, sc measured after 2 hrs by H and E staining based assay. The data set is classed as organism-based. To be noted: in vivo.

SMILES strings stand for the structures. Active and inactive are the calls of the source. Bounds are passed on as bounds.

Broadly, the MIC is the smallest concentration in the dilution series that meets the test's criterion for growth inhibition. For orientation: HC50 means the concentration that lyses half of the red blood cells.

For the compound `CC[C@H](C)[C@H](NC(=O)CN)C(=O)NCC(=O)N[C@@H](C)C(=O)N[C@H](C(=O)N[C@@H](CC(C)C)C(=O)N[C@@H](CCCCN)C(=O)N[C@H](C(=O)N[C@@H](CC(C)C)C(=O)N[C@H](C(=O)N[C@H](C(=O)NCC(=O)N[C@@H](CC(C)C)C(=O)N1CCC[C@H]1C(=O)N[C@@H](C)C(=O)N[C@@H](CC(C)C)C(=O)N[C@H](C(=O)N[C@@H](CO)C(=O)N[C@@H](Cc1c[nH]c2ccccc12)C(=O)N[C@H](C(=O)N[C@@H](CCCCN)C(=O)N[C@@H](CCCNC(=N)N)C(=O)N[C@@H](CCCCN)C(=O)N[C@@H](CCCNC(=N)N)C(=O)N[C@@H](CCC(N)=O)C(=O)N[C@@H](CCC(N)=O)C(N)=O)[C@@H](C)CC)[C@@H](C)CC)[C@@H](C)O)[C@@H](C)O)C(C)C)C(C)C`, the outcome with Cell membrane was Active.
Take `CCn1cc(C(=O)O)c(=O)c2cc(F)c(N3CCNCC3)cc21` [NORFLOXACIN]: the “fold change (FC)” value in the data set with Staphylococcus aureus [1] worked out at 128.
For the compound `C=CCc1cc(-c2ccc(OCCC[N+](C)(C)CC(=O)NCCCC)c(CC=C)c2)c2oc(-c3ccc(Cl)cc3)nc2c1.[Br-]`, the minimal inhibitory concentration (MIC) against Staphylococcus aureus [2] was found to be 16 µg/mL; in the data set on Staphylococcus aureus [3], 8 µg/mL; against Staphylococcus aureus [4], 4 µg/mL; with Staphylococcus aureus [5] it was 4 µg/mL; against Staphylococcus aureus [6], 4 µg/mL; in the data set on Staphylococcus aureus [7] it was 8 µg/mL. The MIC against Staphylococcus aureus [8] stood at 4 µg/mL; against Staphylococcus aureus [9], 4 µg/mL; against Staphylococcus aureus [10], 8 µg/mL; in the data set with Staphylococcus aureus [11], 4 µg/mL; against Staphylococcus aureus [12], 8 µg/mL; in the data set with Staphylococcus aureus [13] it was 4 µg/mL. In the data set on Escherichia coli, this compound returned an MIC of over 128 µg/mL. In data set [14], this compound showed a concentration for 50% haemolysis (HC50) at 1 h of over 640 µg/mL. Moreover, in [15], the selectivity ratio was over 40.
As to `CN[C@H](CC(C)C)C(=O)N[C@H]1C(=O)N[C@@H](CC(N)=O)C(=O)N[C@H]2C(=O)N[C@H]3C(=O)N[C@H](C(=O)N[C@H](C(=O)O)c4cc(O)cc(O)c4-c4cc3ccc4O)[C@H](O)c3ccc(c(Cl)c3)Oc3cc2cc(c3O[C@@H]2O[C@H](CO)[C@@H](O)[C@H](O)[C@H]2O[C@H]2C[C@](C)(N)[C@H](O)[C@H](C)O2)Oc2ccc(cc2Cl)[C@H]1O` [VANCOMYCIN], in the data set with Staphylococcus aureus [16], the outcome was inactive. The outcome in the data set on Staphylococcus aureus [17], with Staphylococcus aureus [19] and with Staphylococcus aureus [20] was Active. Moreover, the Activity in the data set on Staphylococcus aureus [18] is 95.62%; in [21] it was “Non-Toxic”; in [22] it was “Non-Toxic”; in data set [23], “Non-Toxic”; in data set [24], “Non-Toxic”; in data set [25], “Non-Toxic”.
Regarding `C=CCc1cc(-c2ccc(OCCC[N+](C)(C)CC(=O)NCCCC)c(CC=C)c2)c2oc(-c3cccc(Cl)c3Cl)nc2c1.[Br-]`, the MIC in the data set on Staphylococcus aureus [2] is 32 µg/mL; in the data set on Staphylococcus aureus [3], 8 µg/mL; with Staphylococcus aureus [4], 16 µg/mL; against Staphylococcus aureus [5], 8 µg/mL; in the data set on Staphylococcus aureus [6], 16 µg/mL; in the data set on Staphylococcus aureus [7], 4 µg/mL. Also, the minimum inhibitory concentration (MIC) with Staphylococcus aureus [8] came to 8 µg/mL; in the data set with Staphylococcus aureus [9], 4 µg/mL; against Staphylococcus aureus [10], 4 µg/mL; against Staphylococcus aureus [11] it was 8 µg/mL; in the data set with Staphylococcus aureus [12], 8 µg/mL; against Staphylococcus aureus [13], 8 µg/mL. Further, in the data set with Escherichia coli, the MIC was 128 µg/mL. The compound further gave an HC50 at 1 h in data set [14] of 39.5 µg/mL. For the same compound, the selectivity ratio in data set [15] turned out to be 1.2.

The values above are taken from ChEMBL document CHEMBL5608246, “Membrane-Targeting Amphiphilic Honokiol Derivatives Containing an Oxazole Moiety as Potential Antibacterials against Methicillin-Resistant Staphylococcus aureus” (J Med Chem, 2024).
